Several values for one entry are separate records, joined by “and”; a condition that tells them apart may be missing. Identical values can stand only once. Like-named read-outs stand apart in the source and are kept apart here.
Columns and labels:
TTD (UHRF1_121–286) = target: T1, TTD (UHRF1_121–286) (Homo sapiens, UniProt Q96T88); test: ITC of BPC binding to TTD
T1 construct: UHRF1_121–286 corresponding to the TTD; made in house
T1 sequence (Q96T88 121-286): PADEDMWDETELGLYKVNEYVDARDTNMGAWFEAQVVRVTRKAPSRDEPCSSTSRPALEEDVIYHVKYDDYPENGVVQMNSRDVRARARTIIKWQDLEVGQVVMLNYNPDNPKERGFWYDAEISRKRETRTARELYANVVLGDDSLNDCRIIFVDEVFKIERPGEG
Procedure: For ITC measurements of TTD–PHD (UHRF1_126–366) interaction with H3K9me3, samples were dialyzed into a buffer containing 10 mM HEPES (pH 7.5), 150 mM NaCl, 1 mM TCEP, and 30 μM ZnCl2. […] A preliminary peptide injection of 0.06 μl was followed by subsequent 2-μl injections into the sample cell containing 167 μl of 50 μM TTD–PHD. Where indicated, 1.5 mM BPC or 1.5 mM PBR peptide was included in the injection syringe and sample cell. The reported KD and n values are based on the average from two measurements. For ITC measurements of TTD (UHRF1_121–286) interaction with BPC, the protein was buffered in 20 mM Tris (pH 7.4), 50 mM NaCl, and 5% DMSO. BPC was brought to a concentration of 2.5 mM and injected into the sample cell containing 40 μM protein. The data were acquired on a Nano ITC from TA Instruments at 25 °C and fitted with an independent-binding site model using NanoAnalyze software (v3.7.0). […]
Binding of BPC in the groove of TTD.
labeled (at the N-terminus) H3K9me3(1-25) peptide, (B) ITC, and (C) DSF. […]

TTD–PHD (UHRF1_126–366) = target: T2, TTD–PHD (UHRF1_126–366) (Homo sapiens, UniProt Q96T88); test: SAXS of TTD–PHD in the presence of BPC
T2 construct: His tag (TEV-cleavable) (N); made in house
T2 sequence (Q96T88 126-366): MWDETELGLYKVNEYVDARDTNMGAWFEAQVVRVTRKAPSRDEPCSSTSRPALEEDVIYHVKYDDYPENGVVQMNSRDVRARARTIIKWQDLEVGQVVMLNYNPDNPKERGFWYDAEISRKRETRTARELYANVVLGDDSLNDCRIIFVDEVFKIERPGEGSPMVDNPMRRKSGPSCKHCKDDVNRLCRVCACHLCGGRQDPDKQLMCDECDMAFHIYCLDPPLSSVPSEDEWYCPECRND
Procedure: All SAXS samples were buffered in 20 mM Tris (pH 7.5), 150 mM NaCl, 5 mM DTT, 5 mM β-mercaptoethanol, 2 mM TCEP and 10 μM ZnCl2, and data were collected at concentrations ranging from ∼1 to 5 mg/ml. Measurements were carried out at Beamline 12-ID-B of the Advanced Photon Source, Argonne National Laboratory. The energy of the X-ray beam was 14 Kev (wavelength λ = 0.8856 Å), and two setups (small- and wide-angle X-ray scattering) were used simultaneously in which the sample to 2M detector distance was adjusted to achieve scattering q values of 0.006 < q < 2.6 Å^−1, where q = (4π/λ)sinθ, and 2θ is the scattering angle. To reduce radiation damage and obtain good statistics, thirty 2D images were recorded for each buffer or sample solution using a flow cell, with an accumulated exposure time of 0.4–2.0 s. No radiation damage was observed as confirmed by the absence of systematic signal changes in sequentially collected X-ray scattering images. The scattering profile of the protein was calculated by subtracting the background buffer contribution from the […] using the program PRIMUS (ATSAS package, EMBL) ([35]). Concentration series measurements for a sample were carried out to remove the scattering contribution caused by interparticle interactions and to extrapolate the data to infinite dilution. Guinier analysis and the experimental radius of gyration (Rg) estimation from the data of infinite dilution were performed using PRIMUS. The pair distance distribution function, P(r), and the maximum dimension of the protein, Dmax, in real space were calculated with the indirect Fourier transform using the program GNOM ([36]). To avoid underestimation of the molecular dimension and consequent distortion in low resolution structural reconstruction, the parameter Dmax, the upper end of distance r, was chosen such that the resulting PDDF has a short, near zero-value tail at large r. The Rg from P(r) analysis was also reported. The molecular weights were estimated using Vc ([37]) in the q range of 0 < q < 0.3 Å^−1. Fifteen ab initio shape reconstructions (molecular envelopes) were generated using DAMMIF ([38]) and averaged with DAMAVER ([39]). The structural models were superimposed and overlaid with the averaged envelope using SUPCOMP ([40]). The theoretical scattering intensity of a structural model was calculated and fitted to the experimental scattering intensity using CRYSOL ([41]).
Table S1 (related to Fig. 1, S1, S4): SAXS parameters for the TTD-PHD module SAXS HTG-TTD-PHDa TTD-PHD/BPCb […]
b UHRF1126-366 in complex with BPC (2 mM, 4% DMSO) […]
d Rg calculated using Guinier fit e Rg calculated using GNOM (5) f Maximum distance between atoms from GNOM g Volume of correlation (6) h Mw estimated from SAXS data using Vc (6). The Mw expected from sequence is shown in parentheses i Normalized spatial discrepancy. The values are the average and standard deviation from fifteen runs

[1] = ITC, 2.5 mM BPC into 40 μM TTD, pH 7.4, 5% DMSO, 25 °C
[2] = 2 mM BPC, 4% DMSO, GNOM, Table S1

Kd (TTD (UHRF1_121–286); ITC, 2.5 mM BPC into 40 μM TTD, 20 mM Tris pH 7.4, 50 mM NaCl, 5% DMSO, 25 °C, independent-binding site model, read-out: KD): 46 µM | H (enthalpy of binding, ITC) (TTD (UHRF1_121–286); [1]): -2.6 kcal/mol | S (entropy of binding, ITC) (TTD (UHRF1_121–286); [1]): 11.0 cal/mol∙K | calculated ligand efficiency (binding energy per heavy atom) (TTD (UHRF1_121–286); calculated from KD for TTD): 0.38 | Kd (TTD (UHRF1_121–286); isolated TTD, estimated using ITC and DSF, read-out: estimated KD): 50 µM and ~50 µM | Dmax of TTD-PHD with BPC (TTD–PHD (UHRF1_126–366); [2]): 94 Å | Rg real (GNOM) of TTD-PHD with BPC (TTD–PHD (UHRF1_126–366); [2]): 27.1 Å | Rg (Guinier fit) of TTD-PHD with BPC (TTD–PHD (UHRF1_126–366); 2 mM BPC, 4% DMSO, Guinier fit, Table S1): 26.6 Å | Vc (volume of correlation) of TTD-PHD with BPC (TTD–PHD (UHRF1_126–366); 2 mM BPC, 4% DMSO, Table S1): 280.5 | Rg (Guinier fit) of TTD–PHD with BPC (TTD–PHD (UHRF1_126–366); 4 mM BPC, 4% DMSO, 20 mM Tris pH 7.5, 150 mM NaCl, Guinier fit, apo 24.5): 27.1 Å | Vc (volume of correlation) of TTD–PHD with BPC (TTD–PHD (UHRF1_126–366); 4 mM BPC, 4% DMSO, apo 274.3): 284.4 | Rg real (GNOM) of TTD–PHD with BPC (TTD–PHD (UHRF1_126–366); 4 mM BPC, 4% DMSO, from GNOM, apo 24.9): 27.2 Å | Dmax of TTD–PHD with BPC (TTD–PHD (UHRF1_126–366); 4 mM BPC, 4% DMSO, from GNOM, apo 83): 94 Å | shallow secondary shoulder of pair-distance distribution function (TTD–PHD (UHRF1_126–366); TTD–PHD with BPC (4 mM, 4% DMSO)): ~50 Å
Compound: N=C(N)N1CCC(Cc2ccccc2)CC1 [BPC, 4-benzylpiperidine-1-carboximidamide]

From article PMC5743070 (The Journal of Biological Chemistry, 2017)
